One data set deals with cGAS (Homo sapiens, UniProt Q8N884). Kind of data set: Transcreener cGAS enzymatic assay (FP). The data set is classed as biochemical. As for the experimental part:
Structural, biochemical and biophysical analysis and selectivity profiling: Potency and MOA studies, including Mn^2+ sensitivity, were performed using the Transcreener cGAS enzymatic assay, which is manufactured at BellBrook Labs (Fitchburg, Wisconsin, USA). This homogenous cGAS enzymatic assay was developed with fluorescence polarization (FP) and time-resolved Forster resonance energy transfer (TR-FRET) readouts, as described in International Patent Publication WO 2020/142729, incorporated by reference herein in its entirety. Plates are read on a PHERAstar FSX multimode reader (BMG). The compounds of the disclosure were tested for inhibition of cGAS ([…]) using this cGAS enzymatic assay under standard conditions (100 μM ATP and GTP, 62.5 nM bp ISD, 60 minute reactions), high ATP and GTP (1 mM) to mimic physiological conditions, in the presence of 200 μM MnCl2, and with mouse cGAS under standard conditions.
The IC50 values for FP under standard and under physiological conditions were determined for several exemplary compounds of the invention. The relative activities for FP Standard IC50 are shown in Table 2 below, where A represents <50 nM; B represents 50-100 nM; C represents 100-200 nM; D represents 200 nM-1μM; and E represents 1-10 μM. For the relative activities for FP Physiological IC50, A′ represents <200 nM; B′ represents 200-500 nM; C′ represents 500 nM-1μM; D′ represents 1-5 μM; and E′ represents >5 μM.

The subject of data set [1] is IFNβ production in THP-1 cells. In words: IFNβ ELISA in THP-1 cells. The data set is classed as cell-based, human. Particulars: Homo sapiens; THP-1 cells. The source says: Cellular assays: The human monocyte cell line THP-1 and human primary PBMCs were used to evaluate the cellular activity of compounds with good biochemical potency. These cells produce a robust cGAS/STING-dependent type I IFN response when stimulated with dsDNA and other pathogen-associated molecular patterns, which was detected using a standard ELISA for IFNβ (R&D Systems). The TBK1 inhibitor, BX-795, which acts downstream of cGAS/STING, was used as a probe.
CETSA was also used to confirm that the compounds are binding to cGAS in cells; THP-1 cells are used for this analysis. Compounds were tested in dose response mode by incubating with cells for 1.5 hours at 37° C., followed by pelleting and re-suspending in PBS, heating to 51.5° C. for 3 min and cooling to room temp. Cells were then lysed, debris, including denatured cGAS, was pelleted and the supernatant was analyzed for soluble cGAS by Western Blot using anti-cGAS primary Ab (Cell Signaling). Band intensity was analyzed using Image J software. Stimulation with cGAMP directly activates STING, circumventing cGAS; this was used to determine if compounds had effects on downstream components of cGAS/STING signaling. The IFN-6 ELISA was used as the primary measure of cellular potency and selectivity (Table 3) and used the reporter gene assays for assessing off-target activity with other pattern recognition receptors.
The ICso values for IFNB ELISA stimulated with THP-1, PBMC, DNA, and cGAMP were determined for several exemplary compounds of the invention, and are provided in Table 3 where A represents <1 μM; B represents 1-2.5 μM; C represents 2.5-10 μM; D represents 10-20 μM; and E represents >20 μM.
(ELISA stands for enzyme-linked immunosorbent assay.)

In data set [2] the test system is MDCK cells expressing human MDR1 (P-glycoprotein). Kind of data set: MDCK-MDR1 permeability A→B. In kind it is in vitro ADME, Canine. The procedure: ADME studies: Compound A and the compounds of the disclosure were tested for aqueous solubility (KSOL), metabolic stability (human and mouse […]) and permeability (Caco-2 and/or MDR1-MDCK cells) to provide an initial indication of oral bioavailability.
The favorable physicochemical properties are reflected in promising results in in vitro ADME tests. […] Metabolic stability, which was routinely measured with mouse and human hepatocytes, is outstanding, with t, greater than 2 hours for all of the compounds of the disclosure in which it has been measured. Cell permeability was measured using MDCK cells expressing human MDR1 (P-glycoprotein) to assess passive permeability as well as active transport out of the cell. […] Numerous compounds in Table 1 meet these permeability criteria, which is consistent with their design for TPSA <140 Å^2 and increased lipophilicity.
The MDCK-MDR1 permeability A ->B is shown in Table 2 below, where A represents 5-10 cm/s×10^−6; B represents 1-5 cm/s×10^−6; and C represents <1 cm/ss×10^−6. The metabolic stability half time, in both mouse and human hepatocytes, is also shown in Table 2 below, where A′ represents 100-200 minutes; B′ represents 200-300 minutes; and C′ represents >300 minutes.

Where [3] appears, read: high ATP and GTP (1 mM) to mimic physiological conditions, read-out: IC50 FP Physiological.
The mark [4] stands for this setting: standard conditions: 100 μM ATP and GTP, 62.5 nM bp ISD, 60 minute reactions, read-out: IC50 FP Standard.

Read-outs that look alike come from different tables or passages of the source.

Chain of cGAS (Q8N884 whole entry): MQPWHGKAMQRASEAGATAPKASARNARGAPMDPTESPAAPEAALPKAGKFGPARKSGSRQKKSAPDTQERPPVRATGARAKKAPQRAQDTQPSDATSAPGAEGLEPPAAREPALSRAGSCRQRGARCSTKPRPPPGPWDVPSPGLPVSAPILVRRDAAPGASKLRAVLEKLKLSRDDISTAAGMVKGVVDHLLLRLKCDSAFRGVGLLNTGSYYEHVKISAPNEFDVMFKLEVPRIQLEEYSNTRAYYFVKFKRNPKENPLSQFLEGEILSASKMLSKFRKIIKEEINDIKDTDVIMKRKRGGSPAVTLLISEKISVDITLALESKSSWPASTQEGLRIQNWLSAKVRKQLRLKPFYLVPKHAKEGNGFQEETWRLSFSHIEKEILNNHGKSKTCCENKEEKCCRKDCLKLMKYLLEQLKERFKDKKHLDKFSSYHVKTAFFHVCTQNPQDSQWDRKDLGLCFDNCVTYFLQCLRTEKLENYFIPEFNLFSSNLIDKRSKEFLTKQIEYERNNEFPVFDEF

As to `Cc1nc(N2C[C@@H](CC(=O)Nc3ccc(-c4cccc(CO)c4)cc3)C[C@H]2C(=O)O)c2oc3ccccc3c2n1` [Compound 59, (2S,4R)-4-(2-((3′-(hydroxymethyl)-[1,1′-biphenyl]-4-yl)amino)-2-oxoethyl)-1-(2-methylbenzofuro[3,2-d]pyrimidin-4-yl)pyrrolidine-2-carboxylic acid], the IC50 (in general, the concentration needed to halve the response being measured) is 500 to 1000 nM on cGAS (setting [3]) and under 50 nM at cGAS (setting [4]).
As for `Cc1nc(N2C[C@@H](CC(=O)Nc3ccc(-c4cccnn4)cc3)C[C@H]2C(=O)O)c2oc3ccccc3c2n1` [Compound 44, (2S,4R)-1-(2-methylbenzofuro[3,2-d]pyrimidin-4-yl)-4-(2-oxo-2-((4-(pyridazin-3-yl)phenyl)amino)ethyl)pyrrolidine-2-carboxylic acid], the IC50 is over 20 µM in data set [1], 200 to 500 nM on cGAS (setting [3]) and under 50 nM at cGAS (setting [4]). In data set [2], the “MDCK-MDR Permeability A→B” value is on record as “C (C represents <1 cm/ss×10^−6)”.
For the compound `Cc1nc(N2C[C@@H](CC(=O)Nc3cccc(N4CCC(O)CC4)c3)C[C@H]2C(=O)O)c2oc3ccccc3c2n1` [Compound 58, (2S,4R)-4-(2-((3-(4-hydroxypiperidin-1-yl)phenyl)amino)-2-oxoethyl)-1-(2-methylbenzofuro[3,2-d]pyrimidin-4-yl)pyrrolidine-2-carboxylic acid], the IC50 in data set [1] was over 20 µM; on cGAS (setting [3]) it was 1000 to 5000 nM; at cGAS (setting [4]), 200 to 1000 nM. Besides, in data set [2], the “MDCK-MDR Permeability A→B” value is “C (C represents <1 cm/ss×10^−6)”.
Turning to `Cc1nc(N2C[C@@H](CC(=O)Nc3cccc4[nH]ncc34)C[C@H]2C(=O)O)c2oc3ccccc3c2n1` [Compound 28, (28.4R)-4-(2-((1H-indazol-4-yl)amino)-2-oxoethyl)-1-(2-methylbenzofuro[3,2-d]pyrimidin-4-yl)pyrrolidine-2-carboxylic acid], the results for the IC50 (in data set [1]; on cGAS (setting [3]); at cGAS (setting [4])) were over 20 µM, 1000 to 5000 nM and 200 to 1000 nM, respectively. Besides, the “MDCK-MDR Permeability A→B” value in data set [2] is recorded as “C (C represents <1 cm/ss×10^−6)”.
On the same counts, the results for `Cc1nc(N2C[C@@H](CC(=O)Nc3ccc4nc[nH]c4c3)C[C@H]2C(=O)O)c2oc3ccccc3c2n1` [Compound 29, (2S,4R)-4-(2-((1H-benzo[d]imidazol-6-yl)amino)-2-oxoethyl)-1-(2-methylbenzofuro[3,2-d]pyrimidin-4-yl)pyrrolidine-2-carboxylic acid] are over 20 µM, 500 to 1000 nM, 100 to 200 nM and “C (C represents <1 cm/ss×10^−6)”.
On to `Cc1nc(N2C[C@@H](CC(=O)Nc3ccccc3C)C[C@H]2C(=O)O)c2oc3ccccc3c2n1` [Compound 17, (2S,4R)-1-(2-methylbenzofuro[3,2-d]pyrimidin-4-yl)-4-(2-oxo-2-(o-tolylamino)ethyl)pyrrolidine-2-carboxylic acid], for which the IC50 was over 20 µM in data set [1], over 5000 nM at cGAS (setting [3]) and 200 to 1000 nM at cGAS (setting [4]). Besides, the “MDCK-MDR Permeability A→B” value in data set [2] is given as “C (C represents <1 cm/ss×10^−6)”.
The corresponding values for `Cc1nc(N2C[C@@H](CC(=O)Nc3ccc(N4CCN(C)CC4)cc3)C[C@H]2C(=O)O)c2oc3ccccc3c2n1` [Compound 9, (2S,4R)-1-(2-methylbenzofuro[3,2-d]pyrimidin-4-yl)-4-(2-((4-(4-methylpiperazin-1-yl)phenyl)amino)-2-oxoethyl)pyrrolidine-2-carboxylic acid] are over 20 µM, over 5000 nM, 1000 to 10000 nM and “C (C represents <1 cm/ss×10^−6)”.
As for `Cc1nc(N2C[C@@H](CC(=O)Nc3cccc(-c4c[nH]cn4)c3)C[C@H]2C(=O)O)c2oc3ccccc3c2n1` [Compound 49, (28,4R)-4-(2-((3-(1H-imidazol-4-yl)phenyl)amino)-2-oxoethyl)-1-(2-methylbenzofuro[3,2-d]pyrimidin-4-yl)pyrrolidine-2-carboxylic acid], the IC50 in data set [1] was over 20 µM; on cGAS (setting [3]), 500 to 1000 nM; on cGAS (setting [4]) it was 100 to 200 nM.
As for `Cc1nc(N2C[C@@H](CC(=O)Nc3ccc(-c4ccc(O)nc4)cc3)C[C@H]2C(=O)O)c2oc3ccccc3c2n1` [Compound 47, (28.4R)-4-(2-((4-(6-hydroxypyridin-3-yl)phenyl)amino)-2-oxoethyl)-1-(2-methylbenzofuro[3,2-d]pyrimidin-4-yl)pyrrolidine-2-carboxylic acid], the half-inhibitory concentration (IC50) at cGAS (setting [3]) is 1000 to 5000 nM; on cGAS (setting [4]), 100 to 200 nM.
As to `Cc1nc(N2C[C@@H](CC(=O)Nc3cnc(-c4ccccc4)nc3)C[C@H]2C(=O)O)c2oc3ccccc3c2n1` [Compound 65, (2S,4R)-1-(2-methylbenzofuro[3,2-d]pyrimidin-4-yl)-4-(2-oxo-2-((2-phenylpyrimidin-5-yl)amino)ethyl)pyrrolidine-2-carboxylic acid], the IC50 at cGAS (setting [3]) is 500 to 1000 nM; on cGAS (setting [4]), 50 to 100 nM.
Turning to `Cc1nc(N2C[C@@H](CC(=O)Nc3ccc(N4CCC(O)CC4)cc3)C[C@H]2C(=O)O)c2oc3ccccc3c2n1` [Compound 53, (2S,4R)-4-(2-((4-(4-hydroxypiperidin-1-yl)phenyl)amino)-2-oxoethyl)-1-(2-methylbenzofuro[3,2-d]pyrimidin-4-yl)pyrrolidine-2-carboxylic acid], the IC50 in data set [1] is over 20 µM; on cGAS (setting [3]), 1000 to 5000 nM; at cGAS (setting [4]) it was 200 to 1000 nM.
Take `Cc1nc(N2C[C@@H](CC(=O)Nc3ccc(-c4ccccc4)nn3)C[C@H]2C(=O)O)c2oc3ccccc3c2n1` [Compound 64, (2S,4R)-1-(2-methylbenzofuro[3,2-d]pyrimidin-4-yl)-4-(2-oxo-2-((6-phenylpyridazin-3-yl)amino)ethyl)pyrrolidine-2-carboxylic acid]: the IC50 at cGAS (setting [3]) was in the range of 1000 to 5000 nM; on cGAS (setting [4]), 200 to 1000 nM.
For the compound `Cc1nc(N2C[C@@H](CC(=O)Nc3ccc(-c4ccnc(O)c4)cc3)C[C@H]2C(=O)O)c2oc3ccccc3c2n1` [Compound 48, (2S,4R)-4-(2-((4-(2-hydroxypyridin-4-yl)phenyl)amino)-2-oxoethyl)-1-(2-methylbenzofuro[3,2-d]pyrimidin-4-yl)pyrrolidine-2-carboxylic acid], the IC50 on cGAS (setting [3]) is 500 to 1000 nM; on cGAS (setting [4]), under 50 nM.
As to `Cc1nc(N2C[C@@H](CC(=O)Nc3ccc(N4CCOC4=O)cc3)C[C@H]2C(=O)O)c2oc3ccccc3c2n1` [Compound 52, (2S,4R)-1-(2-methylbenzofuro[3,2-d]pyrimidin-4-yl)-4-(2-oxo-2-((4-(2-oxooxazolidin-3-yl)phenyl)amino)ethyl)pyrrolidine-2-carboxylic acid], the half-inhibitory concentration (IC50) on cGAS (setting [3]) was 1000 to 5000 nM; on cGAS (setting [4]), 100 to 200 nM.
On the same counts, the results for `Cc1nc(N2C[C@@H](CC(=O)Nc3ccc(-c4ccc(CO)cc4)cc3)C[C@H]2C(=O)O)c2oc3ccccc3c2n1` [Compound 60, (28.4R)-4-(2-((4′-(hydroxymethyl)-[1,1′-biphenyl]-4-yl)amino)-2-oxoethyl)-1-(2-methylbenzofuro[3,2-d]pyrimidin-4-yl)pyrrolidine-2-carboxylic acid] are 200 to 500 nM and under 50 nM.
